Entries after “also recorded” stand apart in the source; their conditions may differ.
What was measured:
[1] = Intra-/extracellular unbound concentration ratio (Kpuu) in human hepatocytes; assay type: in vitro ADME; conditions: cryopreserved hepatocytes, ratio of free intracellular and media concentration after 1 h incubation at 1 μM, geometric mean of 3 replicates ± SD
Method: kpuu values were determined by measuring total cell and media concentrations corrected for their respective fraction unbound. Detailed methods to determine intra- and extracellular concentrations of compound in the HEKNaCT cells and human hepatocytes will be the subject of a separate manuscript that is under preparation. […]
Intra- and extracellular concentrations of compound in cellular assays. kpuu values were determined by measuring total cell and media concentrations corrected for their respective […]
fraction unbound. […]
The solution was heated to reflux until the total volume was reduced to ~25 mL.
Hexane (25 mL) was added and the mixture was brought back to reflux than allowed to slowly cool to room temperature. After standing at room temperature for 16 h, the resulting suspension was filtered and dried under high vacuum to yield (S)-2-(4-(tert-butyl)phenethyl)-2-hydroxysuccinic acid (3) as a white solid. The filtrate was allowed to stand at room temperature for 4 days. The solvent evaporated to ~15 mL and large, colorless crystals formed.
X-ray analysis. Data collection was performed on a Bruker APEX diffractometer at room temperature. Data collection consisted of 3 omega scans and low angle and three at high angle; each with 0.5 step. In addition, 2 phi scans were collected to improve the quality of the […]

human hepatocytes = experiment: U-[13C]-citrate uptake and incorporation into TCA cycle intermediates in human hepatocytes; assay type: cell-based; conditions: 500 μM U-[13C]-citrate, 30 μM compound
Method: Primary hepatocytes were given the indicated substrates (compound and labeled citrate) under the same conditions used to generate the IC50 curves. Incubations were stopped by rapidly removing culture media and adding 80% methanol pre-cooled in dry ice. Cellular debris was removed by centrifugation and samples dried by Speedvac. Dried cell extracts were then re-dissolved in 100 μL HPLC-grade water. Citrate uptake was analyzed by injecting a 10 μL aliquot of sample onto an Imtakt UK-Phenyl (2.1 mm × 150 mm) column (Imtakt USA, Philadelphia, PA, USA) using a Waters Acquity UPLC system (Waters Corp., Milford, MA, USA) coupled to a Thermo Q-Exactive mass spectrometer (Thermo Corp., San Jose, CA, USA). […] Metabolites were monitored using negative ion electrospray, ESI(-), in full scan mode with a resolution of 70,000 FWHM calibrated to mass accuracy <2 ppm. […] Citrate transport was determined through enrichment of ^13C6-citrate into the intracellular pool of citrate as determined by the percent ^13C6-citrate in the total pool. Fate of citrate carbon through one turn of the TCA cycle was analyzed by comparing percent labeling into the respective pools of ^13C4-fumarate, ^13C4-malate, and ^13C4-glutamate. Thermo LCQuan (Thermo Corp, San Jose, CA, USA) was used to extract out exact mass using a 5 ppm window at the calculated accurate mass for each metabolite and its isotopomer. […]

[2] = target: Abelson murine leukemia viral oncogene homolog 1 (ABL1) (Homo sapiens, UniProt P00519); experiment: Selectivity data (Table S1); assay type: biochemical
[3] = target: Monoacylglycerol acyltransferase 2 (MGAT2) (Homo sapiens, UniProt Q3SYC2); experiment: Selectivity data (Table S1); assay type: biochemical
[4] = target: Monoacylglycerol acyltransferase 3 (MGAT3) (Homo sapiens, UniProt Q86VF5); experiment: Selectivity data (Table S1); assay type: biochemical
[5] = target: Dopamine transporter, sodium-dependent (DAT) (Homo sapiens, UniProt Q01959); experiment: Selectivity data (Table S1)
[6] = target: Noradrenaline transporter, sodium-dependent (NAT) (Homo sapiens, UniProt P23975); experiment: Selectivity data (Table S1)
[7] = target: Adrenergic receptor, alpha-2A (ADRA2A) (Homo sapiens, UniProt P08913); experiment: Selectivity data (Table S1); assay type: binding
[8] = target: Adrenergic receptor, alpha-2B (ADRA2B) (Homo sapiens, UniProt P18089); experiment: Selectivity data (Table S1); assay type: binding
[9] = target: Adrenergic receptor, beta-2(ADRB2) (Homo sapiens, UniProt P07550); experiment: Selectivity data (Table S1); assay type: binding
Androgen receptor = Androgen receptor (Homo sapiens, UniProt P10275); experiment: Selectivity data (Table S1); assay type: binding
[10] = target: Epidermal growth factor receptor (EGFR) (Homo sapiens, UniProt P00533); experiment: Selectivity data (Table S1); assay type: binding
[11] = target: Histamine receptor 1 (H1) (Homo sapiens, UniProt P35367); experiment: Selectivity data (Table S1); assay type: binding
Histamine receptor (H3) = Histamine receptor (H3) (Homo sapiens, UniProt Q9Y5N1); experiment: Selectivity data (Table S1); assay type: binding
[12] = target: Muscarinic acetylcholine receptor 3 (M3) (Homo sapiens, UniProt P20309); experiment: Selectivity data (Table S1); assay type: binding
[13] = target: Neurokinin receptor 1 (NK1) (Homo sapiens, UniProt P25103); experiment: Selectivity data (Table S1); assay type: binding
[14] = target: Nicotinic acetylcholine receptor complex (alpha-4 / beta-2) (Homo sapiens, UniProt P17787+P43681); experiment: Selectivity data (Table S1); assay type: binding
[15] = target: Opioid receptor, kappa 1 (OPRK1) (Homo sapiens, UniProt P41145); experiment: Selectivity data (Table S1); assay type: binding
[16] = target: Opioid receptor, mu (MOP) (Homo sapiens, UniProt P35372); experiment: Selectivity data (Table S1); assay type: binding
[17] = target: Peroxisome proliferator activated receptor gamma (PPAR-gamma) (Homo sapiens, UniProt P37231); experiment: Selectivity data (Table S1); assay type: binding
[18] = target: Serotonin receptor 2B (5-HT2B) (Homo sapiens, UniProt P41595); experiment: Selectivity data (Table S1); assay type: binding
[19] = target: Serotonin receptor 3 (5-HT3) (Homo sapiens, UniProt P46098); experiment: Selectivity data (Table S1); assay type: binding
[20] = target: Serotonin receptor 4e (5-HT4e) (Homo sapiens, UniProt Q13639); experiment: Selectivity data (Table S1); assay type: binding
[21] = Steady state intravenous infusion in rat, tissue distribution

Monoacylglycerol acyltransferase 2 (MGAT2), sequence (Q3SYC2 whole entry): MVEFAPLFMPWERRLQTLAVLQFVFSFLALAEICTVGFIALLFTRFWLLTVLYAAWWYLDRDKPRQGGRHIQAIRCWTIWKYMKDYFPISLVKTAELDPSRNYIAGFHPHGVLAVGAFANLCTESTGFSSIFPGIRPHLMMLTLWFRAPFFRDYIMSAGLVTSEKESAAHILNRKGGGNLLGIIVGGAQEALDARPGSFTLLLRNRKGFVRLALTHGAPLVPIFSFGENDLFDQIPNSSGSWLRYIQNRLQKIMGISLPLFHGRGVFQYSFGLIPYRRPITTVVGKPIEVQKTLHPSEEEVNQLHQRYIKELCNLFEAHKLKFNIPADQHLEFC
Adrenergic receptor, alpha-2A (ADRA2A), sequence (P08913 whole entry): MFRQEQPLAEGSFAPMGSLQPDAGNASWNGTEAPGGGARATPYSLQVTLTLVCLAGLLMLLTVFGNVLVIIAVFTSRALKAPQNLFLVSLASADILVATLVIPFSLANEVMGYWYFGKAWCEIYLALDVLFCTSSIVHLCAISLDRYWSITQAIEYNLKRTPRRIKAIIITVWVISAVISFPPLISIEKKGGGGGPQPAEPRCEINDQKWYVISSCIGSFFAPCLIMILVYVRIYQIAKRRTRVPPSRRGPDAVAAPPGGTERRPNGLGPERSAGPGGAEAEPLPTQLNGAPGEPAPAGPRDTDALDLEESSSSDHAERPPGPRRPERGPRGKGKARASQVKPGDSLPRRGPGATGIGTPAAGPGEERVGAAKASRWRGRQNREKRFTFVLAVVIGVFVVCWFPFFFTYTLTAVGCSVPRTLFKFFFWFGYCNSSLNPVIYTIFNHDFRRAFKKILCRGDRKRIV
Monoacylglycerol acyltransferase 3 (MGAT3), sequence (Q86VF5 whole entry): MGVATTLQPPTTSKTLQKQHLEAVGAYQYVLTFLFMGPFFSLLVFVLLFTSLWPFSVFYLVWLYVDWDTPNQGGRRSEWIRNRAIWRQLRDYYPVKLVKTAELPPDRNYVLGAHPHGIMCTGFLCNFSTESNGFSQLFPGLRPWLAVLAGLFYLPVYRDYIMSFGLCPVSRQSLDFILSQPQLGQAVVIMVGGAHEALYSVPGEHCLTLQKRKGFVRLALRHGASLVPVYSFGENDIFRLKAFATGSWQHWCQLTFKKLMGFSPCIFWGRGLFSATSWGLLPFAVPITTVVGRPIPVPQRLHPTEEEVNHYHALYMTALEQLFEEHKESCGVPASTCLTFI
Adrenergic receptor, alpha-2B (ADRA2B), sequence (P18089 whole entry): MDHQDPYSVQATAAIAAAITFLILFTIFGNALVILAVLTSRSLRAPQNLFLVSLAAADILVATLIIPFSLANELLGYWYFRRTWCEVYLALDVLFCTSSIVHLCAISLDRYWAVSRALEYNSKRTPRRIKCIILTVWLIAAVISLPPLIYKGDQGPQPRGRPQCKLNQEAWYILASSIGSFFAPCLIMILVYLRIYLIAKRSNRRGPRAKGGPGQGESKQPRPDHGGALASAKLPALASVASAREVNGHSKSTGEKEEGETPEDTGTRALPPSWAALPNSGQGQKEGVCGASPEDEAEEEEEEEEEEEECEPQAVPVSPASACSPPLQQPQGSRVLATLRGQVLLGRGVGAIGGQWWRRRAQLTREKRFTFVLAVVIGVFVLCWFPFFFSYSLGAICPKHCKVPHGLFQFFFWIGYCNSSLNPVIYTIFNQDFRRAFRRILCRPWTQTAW
Opioid receptor, kappa 1 (OPRK1), sequence (P41145 whole entry): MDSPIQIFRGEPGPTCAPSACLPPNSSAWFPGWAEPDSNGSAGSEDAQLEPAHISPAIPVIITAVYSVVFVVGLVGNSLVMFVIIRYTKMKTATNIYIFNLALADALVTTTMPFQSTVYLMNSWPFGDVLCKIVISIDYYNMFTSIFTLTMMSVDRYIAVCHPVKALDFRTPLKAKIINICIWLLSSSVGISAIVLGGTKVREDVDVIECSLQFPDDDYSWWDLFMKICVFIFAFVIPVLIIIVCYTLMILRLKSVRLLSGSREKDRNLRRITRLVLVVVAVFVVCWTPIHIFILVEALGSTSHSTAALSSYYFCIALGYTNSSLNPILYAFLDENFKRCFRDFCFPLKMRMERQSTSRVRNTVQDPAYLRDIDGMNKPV
Muscarinic acetylcholine receptor 3 (M3), sequence (P20309 whole entry): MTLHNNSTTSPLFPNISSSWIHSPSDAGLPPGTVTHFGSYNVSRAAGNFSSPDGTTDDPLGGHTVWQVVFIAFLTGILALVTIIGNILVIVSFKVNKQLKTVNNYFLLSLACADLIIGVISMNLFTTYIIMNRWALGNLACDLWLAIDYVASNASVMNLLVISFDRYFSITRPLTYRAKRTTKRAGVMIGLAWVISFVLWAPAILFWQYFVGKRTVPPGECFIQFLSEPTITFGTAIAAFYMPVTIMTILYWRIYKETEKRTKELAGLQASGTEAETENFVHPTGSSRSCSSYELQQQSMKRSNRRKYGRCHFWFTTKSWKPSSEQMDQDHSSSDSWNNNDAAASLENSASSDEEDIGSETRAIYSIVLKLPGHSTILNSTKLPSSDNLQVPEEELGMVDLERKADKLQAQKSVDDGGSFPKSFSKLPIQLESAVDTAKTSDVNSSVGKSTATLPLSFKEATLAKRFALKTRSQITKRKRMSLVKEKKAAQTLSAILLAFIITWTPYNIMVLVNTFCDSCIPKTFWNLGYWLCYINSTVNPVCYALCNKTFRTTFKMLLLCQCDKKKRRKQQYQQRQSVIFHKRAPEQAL
Androgen receptor, sequence (P10275 whole entry): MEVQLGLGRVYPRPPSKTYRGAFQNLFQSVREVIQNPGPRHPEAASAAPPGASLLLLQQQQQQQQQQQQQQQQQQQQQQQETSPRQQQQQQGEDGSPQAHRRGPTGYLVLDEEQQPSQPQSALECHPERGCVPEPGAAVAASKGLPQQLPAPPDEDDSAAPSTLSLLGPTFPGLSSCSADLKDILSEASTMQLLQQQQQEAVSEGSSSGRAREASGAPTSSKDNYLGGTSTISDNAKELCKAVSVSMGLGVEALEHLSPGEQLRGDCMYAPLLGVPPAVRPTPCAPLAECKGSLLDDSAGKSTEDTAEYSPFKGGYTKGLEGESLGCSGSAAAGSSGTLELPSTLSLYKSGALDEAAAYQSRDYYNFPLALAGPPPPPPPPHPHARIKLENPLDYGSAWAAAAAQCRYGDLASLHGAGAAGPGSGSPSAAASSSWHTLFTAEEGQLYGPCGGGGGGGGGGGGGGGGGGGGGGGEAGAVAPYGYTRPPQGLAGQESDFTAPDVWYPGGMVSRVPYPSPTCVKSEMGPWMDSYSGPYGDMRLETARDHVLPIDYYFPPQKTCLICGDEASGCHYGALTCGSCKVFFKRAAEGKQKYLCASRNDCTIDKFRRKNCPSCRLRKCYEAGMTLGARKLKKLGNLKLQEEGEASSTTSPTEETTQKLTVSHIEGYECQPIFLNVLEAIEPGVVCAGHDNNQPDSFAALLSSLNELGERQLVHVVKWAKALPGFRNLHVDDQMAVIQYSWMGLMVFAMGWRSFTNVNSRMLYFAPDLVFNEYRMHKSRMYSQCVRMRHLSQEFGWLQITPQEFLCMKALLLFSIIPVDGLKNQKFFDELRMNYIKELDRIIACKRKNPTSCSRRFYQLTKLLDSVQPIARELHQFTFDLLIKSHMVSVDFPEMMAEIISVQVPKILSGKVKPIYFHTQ
Epidermal growth factor receptor (EGFR), sequence (P00533 25-1210): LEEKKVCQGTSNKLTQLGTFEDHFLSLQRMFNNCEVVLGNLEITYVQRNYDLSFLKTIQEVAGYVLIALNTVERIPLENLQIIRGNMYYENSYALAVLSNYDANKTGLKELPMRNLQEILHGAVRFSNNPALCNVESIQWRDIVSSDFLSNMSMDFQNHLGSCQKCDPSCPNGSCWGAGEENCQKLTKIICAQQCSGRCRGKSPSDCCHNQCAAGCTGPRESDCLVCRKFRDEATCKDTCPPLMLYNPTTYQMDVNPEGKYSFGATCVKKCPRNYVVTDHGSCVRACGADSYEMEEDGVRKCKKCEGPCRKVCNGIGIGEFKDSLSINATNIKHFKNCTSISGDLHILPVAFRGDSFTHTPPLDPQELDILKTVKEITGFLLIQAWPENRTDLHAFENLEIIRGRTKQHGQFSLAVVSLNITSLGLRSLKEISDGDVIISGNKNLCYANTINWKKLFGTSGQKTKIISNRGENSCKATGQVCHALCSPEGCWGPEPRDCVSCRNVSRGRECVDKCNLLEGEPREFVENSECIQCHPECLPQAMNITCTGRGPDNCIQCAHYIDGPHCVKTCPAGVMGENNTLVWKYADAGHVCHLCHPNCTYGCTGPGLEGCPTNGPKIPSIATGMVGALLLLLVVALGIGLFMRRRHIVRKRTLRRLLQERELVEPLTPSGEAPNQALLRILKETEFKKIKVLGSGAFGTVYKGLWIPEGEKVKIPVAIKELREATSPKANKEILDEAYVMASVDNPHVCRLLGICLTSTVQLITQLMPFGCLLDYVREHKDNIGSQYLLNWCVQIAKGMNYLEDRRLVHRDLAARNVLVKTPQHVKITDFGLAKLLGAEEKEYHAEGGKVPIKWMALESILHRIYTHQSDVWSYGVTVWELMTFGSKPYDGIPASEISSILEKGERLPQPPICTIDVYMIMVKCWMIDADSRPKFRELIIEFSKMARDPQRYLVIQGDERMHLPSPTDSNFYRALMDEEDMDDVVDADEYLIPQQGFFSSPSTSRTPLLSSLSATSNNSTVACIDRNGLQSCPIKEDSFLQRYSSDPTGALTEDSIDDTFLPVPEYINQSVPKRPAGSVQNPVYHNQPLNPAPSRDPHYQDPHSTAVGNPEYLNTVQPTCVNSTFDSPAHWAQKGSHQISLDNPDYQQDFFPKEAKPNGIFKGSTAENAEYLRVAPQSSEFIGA

CC(C)(C)c1ccc(CC[C@@](O)(CC(=O)O)C(=O)O)cc1 [Compound 2]
Kp uu at 1 h, 1 µM [1]: 4.8 ± 0.5
uniform labeling of citrate, malate, glutamate and fumarate from U-[13C]-citrate (human hepatocytes): reduced
inhibition at 100 µM [2]: < 10%
IC50 [3]: > 50 µM
IC50 [4]: > 50 µM
inhibition at 100 µM [5]: < 10%
inhibition at 100 µM [6]: < 10%
inhibition at 100 µM [7]: < 10%
inhibition at 100 µM [8]: < 10%
inhibition at 100 µM [9]: < 10%
inhibition at 100 µM (Androgen receptor): < 10%
inhibition at 100 µM [10]: < 10%
inhibition at 100 µM [11]: < 10%
inhibition at 100 µM (Histamine receptor (H3)): < 10%
inhibition at 100 µM [12]: < 10%
inhibition at 100 µM [13]: < 10%
inhibition at 100 µM [14]: < 10%
inhibition at 100 µM [15]: 13%
inhibition at 100 µM [16]: < 10%
inhibition at 100 µM [17]: < 10%
inhibition at 100 µM [18]: < 10%
inhibition at 100 µM [19]: < 10%
inhibition at 100 µM [20]: < 10%
brain penetration ([21]; steady state intravenous infusion): minimal brain penetration; also recorded: restricted in the brain
uptake in liver and kidney compared to plasma ([21]; steady state intravenous infusion 0.27mg/kg/hour): significant uptake of the compound in the liver and kidney

From paper PMC4664966, “Discovery and characterization of novel inhibitors of the sodium-coupled citrate transporter (NaCT or SLC13A5)” (Scientific Reports, 2015)
